This passage reports IC50 and inhibition results from patent US10519134B2, “Pyrazole compounds and methods of making and using same” (Lundbeck La Jolla Research Center, Inc., priority 2015, dated 2019).

Each structure is given as a SMILES string.

In one experiment the target is T1, MAGL (Mus musculus, UniProt O35678).
T1 construct: Proteomes (mouse brain membrane fraction or cell lysates); from tissue; host or cells: mouse brain membrane fraction (or cell lysates)
T1 sequence (O35678 1-303): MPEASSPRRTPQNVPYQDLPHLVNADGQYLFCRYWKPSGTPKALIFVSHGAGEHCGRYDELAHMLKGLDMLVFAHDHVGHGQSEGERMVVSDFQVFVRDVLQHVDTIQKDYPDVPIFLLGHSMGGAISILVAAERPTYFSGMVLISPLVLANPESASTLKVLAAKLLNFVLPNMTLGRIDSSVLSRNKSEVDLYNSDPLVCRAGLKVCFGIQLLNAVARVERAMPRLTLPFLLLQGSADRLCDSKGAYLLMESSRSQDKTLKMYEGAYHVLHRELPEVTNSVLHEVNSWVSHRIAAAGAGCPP
Put plainly: In vitro competitive activity-based protein profiling (mouse), MAGL gel band. It is filed as biochemical. The note with it: for IC50: mouse; for inhibition at 1 µM: read-out: MAGL % inh. 1 μM. The protocol: (§1) In Vitro Competitive Activity-Based Protein Profiling (Mouse).
(§2) Proteomes (mouse brain membrane fraction or cell lysates) (50 μL, 1.0 mg/mL total protein concentration) were preincubated with varying concentrations of inhibitors at 37° C. After 30 min, FP-Rh or HT-01 (1.0 μL, 50 μM in DMSO) was added and the mixture was incubated for another 30 min at 37° C. Reactions were quenched with SDS loading buffer (15 μL—4×) and run on SDS-PAGE. Following gel imaging, serine hydrolase activity was determined by measuring fluorescent intensity of gel bands corresponding to MAGL, ABHD6, and FAAH, using ImageJ 1.43u software.

The target in another experiment is T2, FAAH (Mus musculus, UniProt O08914).
T2 construct: Proteomes (mouse brain membrane fraction or cell lysates); from tissue; host or cells: mouse brain membrane fraction (or cell lysates)
T2 sequence (O08914 1-579): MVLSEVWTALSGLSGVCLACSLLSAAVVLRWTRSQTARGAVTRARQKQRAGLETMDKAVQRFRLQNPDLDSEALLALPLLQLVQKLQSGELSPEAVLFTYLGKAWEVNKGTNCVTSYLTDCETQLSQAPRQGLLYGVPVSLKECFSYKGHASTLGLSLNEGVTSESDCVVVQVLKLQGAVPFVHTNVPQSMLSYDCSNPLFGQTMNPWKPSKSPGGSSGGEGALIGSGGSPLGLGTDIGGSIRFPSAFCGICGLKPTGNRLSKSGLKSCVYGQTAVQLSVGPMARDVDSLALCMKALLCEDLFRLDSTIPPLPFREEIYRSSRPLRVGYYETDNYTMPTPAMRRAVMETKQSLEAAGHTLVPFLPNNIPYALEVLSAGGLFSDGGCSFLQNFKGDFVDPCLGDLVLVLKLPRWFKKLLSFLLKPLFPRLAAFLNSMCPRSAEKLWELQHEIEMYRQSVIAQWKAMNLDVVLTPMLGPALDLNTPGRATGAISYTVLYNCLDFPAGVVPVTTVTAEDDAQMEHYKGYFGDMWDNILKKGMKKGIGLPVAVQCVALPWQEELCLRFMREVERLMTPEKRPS
Put plainly: In vitro competitive activity-based protein profiling (mouse), FAAH gel band. The experiment is classed as biochemical. Particulars: for IC50: mouse; for inhibition at 1 µM: read-out: FAAH % inh. 1 μM. The protocol:
as §1, §2

For orientation: IC50 means the concentration needed to halve the response being measured. A lower IC50 goes with inhibition by little substance. On to `CC(=O)Nc1ccn(C(=O)N2CCC3(CCCN3Cc3ccc4c(c3)OCCO4)CC2)n1` [Example 98, N-(1-(1-((2,3-dihydrobenzo[b][1,4]dioxin-6-yl)methyl)-1,8-diazaspiro[4.5]decane-8-carbonyl)-1H-pyrazol-3-yl)acetamide], for which, on MAGL, the concentration for half-maximal inhibition (IC50) was in the range of 0.1 to 1 µM and the inhibition at 1 µM was not below 75%. Also, on FAAH, the concentration for half-maximal inhibition (IC50) is 1 to 10 µM and the inhibition at 1 µM was in the range of 0 to 25%.
As to `CC(=O)Nc1ccn(C(=O)N2CCC3(CCCN3Cc3ccc(N4CCOCC4)c(Cl)c3)CC2)n1` [Example 99, N-(1-(1-(3-chloro-4-morpholinobenzyl)-1,8-diazaspiro[4.5]decane-8-carbonyl)-1H-pyrazol-3-yl)acetamide], on MAGL, the IC50 fell in the range of 0.1 to 1 µM and the inhibition at 1 µM is not below 75%. Moreover, at FAAH, the IC50 was 1 to 10 µM and the inhibition at 1 µM lay within 0 to 25%.
Taken in the same sequence, the figures for `CC(=O)Nc1ccn(C(=O)N2CCC3(CCCN3Cc3ccc(N4CCCC4)c(Cl)c3)CC2)n1` [Example 100, N-(1-(1-(3-chloro-4-(pyrrolidin-1-yl)benzyl)-1,8-diazaspiro[4.5]decane-8-carbonyl)-1H-pyrazol-3-yl)acetamide] were not above 0.1 µM, not below 75%, 1 to 10 µM and 0 to 25%.
Take `CC(=O)Nc1ccn(C(=O)N2CCC3(CCCN3Cc3ccc(C(F)(F)F)c(C(=O)O)c3)CC2)n1` [Example 108, 5-((8-(3-acetamido-1H-pyrazole-1-carbonyl)-1,8-diazaspiro[4.5]decan-1-yl)methyl)-2-(trifluoromethyl)benzoic Acid]: the inhibition at 1 µM on MAGL fell in the range of 50 to 75%; at FAAH it was 0 to 25%.
`CC(=O)Nc1ccn(C(=O)N2CCC3(CCCN3Cc3ccc(C(=O)O)c(C(F)(F)F)c3)CC2)n1` [Example 110, 4-((8-(3-acetamido-1H-pyrazole-1-carbonyl)-1,8-diazaspiro[4.5]decan-1-yl)methyl)-2-(trifluoromethyl)benzoic Acid]: the inhibition at 1 µM on MAGL is not below 75%; at FAAH, 0 to 25%.
Consider `CC(=O)Nc1ccn(C(=O)N2CCN(Cc3ccc(C#N)cc3-c3nnn[nH]3)CC2)n1` [Example 115, N-(1-(4-(4-cyano-2-(1H-tetrazol-5-yl)benzyl)piperazine-1-carbonyl)-1H-pyrazol-3-yl)acetamide], for which, at MAGL, the IC50 was 0.1 to 1 µM and the inhibition at 1 µM was not below 75%. At FAAH, the IC50 was 1 to 10 µM and the inhibition at 1 µM is 0 to 25%.
Turning to `Cc1cc(CN2CCCC23CCN(C(=O)n2ccc(NC(=O)C(F)(F)F)n2)CC3)ccc1Cl` [Example 117, N-(1-(1-(4-chloro-3-methylbenzyl)-1,8-diazaspiro[4.5]decane-8-carbonyl)-1H-pyrazol-3-yl)-2,2,2-trifluoroacetamide], the inhibition at 1 µM on MAGL was not below 75%; on FAAH it was 0 to 25%.
Taken in the same sequence, the figures for `CC(=O)N1CC2(CCN(c3ccccc3CN3CCN(C(=O)n4ccc(NS(C)(=O)=O)n4)CC3)C2)C1` [Example 122, N-(1-(4-(2-(2-acetyl-2,6-diazaspiro[3.4]octan-6-yl)benzyl)piperazine-1-carbonyl)-1H-pyrazol-3-yl) methanesulfonamide] were 50 to 75% and 0 to 25%.
Taken in the same sequence, the figures for `CS(=O)(=O)Nc1ccn(C(=O)N2CCN(Cc3cc(C(F)(F)F)ccc3N3CCOCC3)CC2)n1` [Example 124, N-(1-(4-(2-morpholino-5-(trifluoromethyl)benzyl)piperazine-1-carbonyl)-1H-pyrazol-3-yl) methanesulfonamide] were 50 to 75% and 0 to 25%.
With `CS(=O)(=O)Nc1ccn(C(=O)N2CCC3(CCCN3Cc3ccc(C(F)(F)F)cc3N3CCOCC3)CC2)n1` [Example 126, N-(1-(1-(2-morpholino-4-(trifluoromethyl)benzyl)-1,8-diazaspiro[4.5]decane-8-carbonyl)-1H-pyrazol-3-yl)methanesulfonamide], the inhibition at 1 µM on MAGL is not below 75%; at FAAH it was 0 to 25%.
As for `CS(=O)(=O)Nc1ccn(C(=O)N2CCN(Cc3ccc(Cl)cc3N3CCCCC3)CC2)n1` [Example 128, N-(1-(4-(4-chloro-2-(piperidin-1-yl)benzyl)piperazine-1-carbonyl)-1H-pyrazol-3-yl) methanesulfonamide], at MAGL, the IC50 is not above 0.1 µM and the inhibition at 1 µM is not below 75%. In addition, on FAAH, the IC50 lay in the range of 1 to 10 µM and the inhibition at 1 µM was in the range of 0 to 25%.
As for `CS(=O)(=O)Nc1ccn(C(=O)N2CCN(Cc3ccc(C(F)(F)F)cc3N3CCCCC3)CC2)n1` [Example 129, N-(1-(4-(2-(piperidin-1-yl)-4-(trifluoromethyl)benzyl)piperazine-1-carbonyl)-1H-pyrazol-3-yl) methanesulfonamide], at MAGL, the IC50 was not above 0.1 µM and the inhibition at 1 µM was not below 75%. For the same molecule, at FAAH, the half-maximal inhibitory concentration (IC50) lay in the range of 1 to 10 µM and the inhibition at 1 µM lay within 0 to 25%.
Consider `CS(=O)(=O)Nc1ccn(C(=O)N2CCC3(CCCN3Cc3ccc(Cl)cc3N3CCCC3)CC2)n1` [Example 131, N-(1-(1-(4-chloro-2-(pyrrolidin-1-yl)benzyl)-1,8-diazaspiro[4.5]decane-8-carbonyl)-1H-pyrazol-3-yl)methanesulfonamide], for which the figures for the inhibition at 1 µM at MAGL and at FAAH were 50 to 75% and 0 to 25%, respectively.
Consider `CS(=O)(=O)Nc1ccn(C(=O)N2CCC3(CCCN3Cc3ccc(Cl)cc3N3CCCCC3)CC2)n1` [Example 132, N-(1-(1-(4-chloro-2-(piperidin-1-yl)benzyl)-1,8-diazaspiro[4.5]decane-8-carbonyl)-1H-pyrazol-3-yl)methanesulfonamide], for which the inhibition at 1 µM on MAGL was in the range of 50 to 75%; on FAAH, 0 to 25%.
Regarding `CS(=O)(=O)Nc1ccn(C(=O)N2CCC3(CCCN3Cc3ccc(C(F)(F)F)cc3N3CCCCC3)CC2)n1` [Example 133, N-(1-(1-(2-(piperidin-1-yl)-4-(trifluoromethyl)benzyl)-1,8-diazaspiro[4.5]decane-8-carbonyl)-1H-pyrazol-3-yl)methanesulfonamide], at MAGL, the concentration for half-maximal inhibition (IC50) was 0.1 to 1 µM and the inhibition at 1 µM is not below 75%. In addition, at FAAH, the half-maximal inhibitory concentration (IC50) lay within 1 to 10 µM and the inhibition at 1 µM fell in the range of 0 to 25%.
With `CC(C)S(=O)(=O)Nc1ccn(C(=O)N2CCN(Cc3ccc(C(F)(F)F)cc3N3CCCC3)CC2)n1` [Example 134, N-(1-(4-(2-(pyrrolidin-1-yl)-4-(trifluoromethyl)benzyl)piperazine-1-carbonyl)-1H-pyrazol-3-yl)propane-2-sulfonamide], on MAGL, the concentration for half-maximal inhibition (IC50) was 1 to 10 µM and the inhibition at 1 µM is 25 to 50%. Also, on FAAH, the half-inhibitory concentration (IC50) is 1 to 10 µM and the inhibition at 1 µM lay within 0 to 25%.
In the case of `CS(=O)(=O)Nc1ccn(C(=O)N2CCN(Cc3ccc(Cl)cc3N3CCOCC3)CC2)n1` [Example 135, N-(1-(4-(4-chloro-2-morpholinobenzyl)piperazine-1-carbonyl)-1H-pyrazol-3-yl) methanesulfonamide], on MAGL, the half-maximal inhibitory concentration (IC50) was in the range of 0.1 to 1 µM and the inhibition at 1 µM was not below 75%. On FAAH, the IC50 was in the range of 1 to 10 µM and the inhibition at 1 µM lay in the range of 0 to 25%.
With `Cc1ccc(CN2CCN(C(=O)n3ccc(NS(C)(=O)=O)n3)CC2)c(N2CCCCC2)c1` [Example 138, N-(1-(4-(4-methyl-2-(piperidin-1-yl)benzyl)piperazine-1-carbonyl)-1H-pyrazol-3-yl) methanesulfonamide], the IC50 at MAGL was 0.1 to 1 µM; at FAAH, 1 to 10 µM. Also, the values for the inhibition at 1 µM at MAGL and at FAAH were not below 75% and 0 to 25%, respectively.
Taken in the same sequence, the figures for `CS(=O)(=O)Nc1ccn(C(=O)N2CCC3(CCCN3Cc3ccc(Cl)cc3N3C[C@H]4CC[C@@H](C3)O4)CC2)n1` [Example 139, N-(1-(1-(2-((1R,5S)-8-oxa-3-azabicyclo[3.2.1]octan-3-yl)-4-chlorobenzyl)-1,8-diazaspiro[4.5]decane-8-carbonyl)-1H-pyrazol-3-yl) methanesulfonamide] were 0.1 to 1 µM, 1 to 10 µM, not below 75% and 0 to 25%.
